Assays:
patients with NIDDM = details: oral administration; cited from earlier work
[1] = test system: patients with coronary heart disease; details: 60 mg twice daily oral, after 8 weeks; cited from earlier work
[2] = test system: rats with diabetes induced by chemical destruction of β-cells; details: 1% taurine in the drinking water; cited from earlier work
[3] = test system: Steptozocine(STZ)-induced male Wistar rats; assay: Effect of high doses of the inventive complex, blood sugar over 21 days; type: in vivo; details: 100 mg/Kg oral (S-2: Cr3+ 1,000 μg/Kg; chromium picolinate: Cr3+ 700 μg/Kg), concurrently with STZ 40 mg/Kg s.c.
[4] = test system: STZ-induced diabetic rats; assay: Repairing damaged β-cells: treatment of STZ-induced diabetic rats for further 21 days; type: in vivo
Method: In another set of experiments, STZ-induced diabetic rats, after 21 days, were administered the invention test complex compounds: S-1 (50 mg/Kg, p.o.), S-2 (100 mg/Kg, p.o.), Chromium picolinate (100 mg/Kg, p.o.), Example-1A (100 mg/Kg., p.o.), per day for further 21 days. This experiment was conducted with a view to assessing the repair aspect of the damaged β-cells by the test compounds.

[5] = Effects on animal body weight in STZ-induced hyperglycemia; type: in vivo; details: STZ-treated rats, 100 mg/Kg oral
[6] = test system: Steptozocine(STZ)-induced male albino rats; assay: Screening of antidiabetic activity, blood sugar lowering action; type: in vivo; details: 300 μg/Kg oral, 48 hr after STZ
obese Zucker rat = details: dietary Vitamin E; cited from earlier work
GK rat = details: Vitamin E supplementation; cited from earlier work

Compound: O=C(O)CCCC[C@@H]1CCSS1 (racemic) [lipoic acid]
- insulin-mediated glucose uptake (patients with NIDDM): significantly increased

Compound: COC1=C(OC)C(=O)C(C/C=C(\C)CC/C=C(\C)CC/C=C(\C)CC/C=C(\C)CC/C=C(\C)CC/C=C(\C)CC/C=C(\C)CC/C=C(\C)CC/C=C(\C)CCC=C(C)C)=C(C)C1=O [coenzyme Q10]
- plasma levels of insulin (fasting and 2-hr), glucose, and lipid peroxides, as compared to the control group [1]: reduced

Compound: NCCS(=O)(=O)O [taurine]
- renal oxidant injury [2]: reduced

Compound: Chromium picolinate
- Blood Sugar Values (Arterial Blood), day 7 ([3]; day 7): 88.7 ± 4.4
- Blood Sugar Values (Arterial Blood), day 14 ([3]; day 14): 94.3 ± 7.2
- Blood Sugar Values (Arterial Blood), day 21 ([3]; day 21): 92.5 ± 3.5
- % Change from day 1 (glucose) ([4]; 100 mg/Kg p.o. per day for 21 days, started 21 days after STZ, day 21 vs day 1): +14 ↑ %
- Glucose (mg/dl) values; mean ± SE, day 1 ([4]; 100 mg/Kg p.o. per day, started 21 days after STZ, day 1): 253.2 ± 7.7 mg/dL
- Glucose (mg/dl) values; mean ± SE, day 7 ([4]; 100 mg/Kg p.o. per day, started 21 days after STZ, day 7): 302.8 ± 18.0 mg/dL
- Glucose (mg/dl) values; mean ± SE, day 14 ([4]; 100 mg/Kg p.o. per day, started 21 days after STZ, day 14): 294.3 ± 20.4 mg/dL
- Glucose (mg/dl) values; mean ± SE, day 21 ([4]; 100 mg/Kg p.o. per day, started 21 days after STZ, day 21): 289.6 ± 9.0 mg/dL
- effect on progressive increase in hyperglycemia (post STZ-treatment) ([4]; diabetic rats treated p.o. for 21 days): no beneficial effect
- Body Weight in gm, day 1 ([5]; day 1): 166 ± 8 gm
- Body Weight in gm, day 7 ([5]; day 7): 180 ± 7 gm
- Body Weight in gm, day 14 ([5]; day 14): 168 ± 9 gm
- Body Weight in gm, day 21 ([5]; day 21): 172 ± 9 gm

Compound: Chromium polynicotinate [Example N-7]
- Fasting Serum Glucose (mg/dl) (mean ± SEM) ([6]; 3 days before and 2 days after STZ 50 mg/Kg i.v., 18 hr fasting): 141.30 ± 9.54 mg/dL
- % Inhibition (of fasting serum glucose vs STZ) ([6]; 3 days before and 2 days after STZ): 58.25%

Compound: Vitamin E
- glucose-stimulated hyper-insulinemia and lipid peroxidation (obese Zucker rat): significantly reduced
- glycemic control (GK rat): significantly improved
